In general, IC50 refers to the concentration at which inhibition is half-maximal.

The target in one assay is Acetylcholinesterase (Homo sapiens, UniProt P22303). Kind of assay: Inhibition of human AChE using acetylthiocholine iodide as substrate by Ellman's assay.
Another assay concerns the target Cholinesterase (Homo sapiens, UniProt P06276). Put plainly: Inhibition of human BChE using butyrylthiocholine iodide as substrate by Ellman's method. (In general: Ellman's reagent forms a yellow product with free thiols.)

SMILES strings stand for the structures.

Chain of Cholinesterase (P06276 whole entry): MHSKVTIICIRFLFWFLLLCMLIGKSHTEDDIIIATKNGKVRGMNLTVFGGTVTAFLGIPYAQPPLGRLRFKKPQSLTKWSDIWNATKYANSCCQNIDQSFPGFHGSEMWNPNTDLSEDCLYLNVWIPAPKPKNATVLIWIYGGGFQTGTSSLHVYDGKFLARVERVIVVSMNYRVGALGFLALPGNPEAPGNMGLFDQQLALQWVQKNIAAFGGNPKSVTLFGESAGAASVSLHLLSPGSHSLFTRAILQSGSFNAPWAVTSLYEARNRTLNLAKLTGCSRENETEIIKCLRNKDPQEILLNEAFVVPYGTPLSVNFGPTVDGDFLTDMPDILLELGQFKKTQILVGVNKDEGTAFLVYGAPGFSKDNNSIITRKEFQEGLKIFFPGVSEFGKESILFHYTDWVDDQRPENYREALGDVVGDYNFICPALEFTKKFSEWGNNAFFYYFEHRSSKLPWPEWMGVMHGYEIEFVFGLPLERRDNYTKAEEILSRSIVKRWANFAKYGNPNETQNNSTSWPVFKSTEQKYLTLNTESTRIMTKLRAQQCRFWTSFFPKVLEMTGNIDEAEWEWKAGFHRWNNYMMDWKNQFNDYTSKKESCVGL
Chain of Acetylcholinesterase (P22303 whole entry): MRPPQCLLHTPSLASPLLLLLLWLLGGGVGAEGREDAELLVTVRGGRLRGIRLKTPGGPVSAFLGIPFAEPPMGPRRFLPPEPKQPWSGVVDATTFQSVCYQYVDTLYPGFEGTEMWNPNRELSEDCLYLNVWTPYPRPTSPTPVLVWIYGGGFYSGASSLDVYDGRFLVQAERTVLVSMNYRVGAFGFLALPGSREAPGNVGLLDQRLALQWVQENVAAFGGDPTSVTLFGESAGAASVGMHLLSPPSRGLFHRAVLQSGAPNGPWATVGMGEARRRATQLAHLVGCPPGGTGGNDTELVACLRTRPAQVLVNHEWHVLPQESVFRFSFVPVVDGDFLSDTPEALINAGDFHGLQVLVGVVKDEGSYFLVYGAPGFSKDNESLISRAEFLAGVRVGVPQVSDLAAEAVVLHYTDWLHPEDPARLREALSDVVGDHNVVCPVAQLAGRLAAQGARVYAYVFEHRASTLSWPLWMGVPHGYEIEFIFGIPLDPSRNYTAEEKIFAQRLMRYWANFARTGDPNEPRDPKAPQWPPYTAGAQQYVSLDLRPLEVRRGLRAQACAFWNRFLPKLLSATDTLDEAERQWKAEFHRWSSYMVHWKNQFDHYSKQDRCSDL

In the case of `CCN(CC)CC(=O)Nc1ccc(C(=O)c2ccc(CN(C)Cc3ccccc3)cc2)cc1`, the figures for the IC50 at Acetylcholinesterase and against Cholinesterase were 210 nM and 144 µM, respectively.
On the same counts, the results for `CN(Cc1ccccc1)Cc1ccc(C(=O)c2ccc(NC(=O)CN3CCCCC3)cc2)cc1` are 550 nM and 145 µM.
`CN(Cc1ccccc1)Cc1ccc(C(=O)c2ccc(NC(=O)CN3CCOCC3)cc2)cc1`: the IC50 at Acetylcholinesterase amounted to 720 nM; on Cholinesterase it was 179 µM.
On the same counts, the results for `CN(Cc1ccccc1)Cc1ccc(C(=O)c2ccc(NC(=O)CCCCN3CCCCC3)cc2)cc1` are 217 nM and 68 µM.
Regarding `CCN(CC)CCCOc1ccc(C(=O)c2ccc(CN(C)Cc3ccccc3)cc2)cc1`, the IC50 is 25 nM against Acetylcholinesterase and 35 µM against Cholinesterase.
On the same counts, the results for `CN(Cc1ccccc1)Cc1ccc(C(=O)c2ccc(OCCCN3CCCCC3)cc2)cc1` are 24 nM and 11 µM.
For `CN(Cc1ccccc1)Cc1ccc(C(=O)c2ccc(OCCCN3CCOCC3)cc2)cc1`, in that order: 107 nM and 21 µM.
For `CN(Cc1ccccc1)Cc1ccc(C(=O)c2ccc(OCCCN3CCC(n4c(=O)[nH]c5ccccc54)CC3)cc2)cc1`, in that order: 68 nM and 39 µM.
On to `CCN(CC)CCCCCOc1ccc(C(=O)c2ccc(CN(C)Cc3ccccc3)cc2)cc1`, for which the 50% inhibitory concentration (IC50) at Acetylcholinesterase worked out at 144 nM; on Cholinesterase, 34 µM.
With `CN(Cc1ccccc1)Cc1ccc(C(=O)c2ccc(OCCCCCN3CCCCC3)cc2)cc1`, the figures for the half-maximal inhibitory concentration (IC50) against Acetylcholinesterase and on Cholinesterase were 143 nM and 10.4 µM, respectively.
For `CCN(CC)CCCCCCOc1ccc(C(=O)c2ccc(CN(C)Cc3ccccc3)cc2)cc1`, in that order: 257 nM and 21.9 µM.
On the same counts, the results for `CN(Cc1ccccc1)Cc1ccc(C(=O)c2ccc(OCCCCCCN3CCCCC3)cc2)cc1` are 210 nM and 9.7 µM.
Consider `CCN(CC)CCCCCCCOc1ccc(C(=O)c2ccc(CN(C)Cc3ccccc3)cc2)cc1`, for which the values for the IC50 on Acetylcholinesterase and on Cholinesterase were 810 nM and 23 µM, respectively.
As for `CN(Cc1ccccc1)Cc1ccc(C(=O)c2ccc(OCCCCCCCN3CCCCC3)cc2)cc1`, the results for the 50% inhibitory concentration (IC50) against Acetylcholinesterase and at Cholinesterase were 110 nM and 24.2 µM, respectively.
On the same counts, the results for `CCN(CC)CCc1ccc(Oc2ccc(C(=O)c3ccc(CN(C)Cc4ccccc4)cc3)cc2)cc1` are 130 nM and 209 µM.
Turning to `COc1ccc(C(=O)c2ccc(CN(C)Cc3ccccc3)cc2)cc1`, on Cholinesterase, the half-inhibitory concentration (IC50) was greater than 10 µM.

For the origin of these results see ChEMBL document CHEMBL1773070, “Benzophenone-based derivatives: a novel series of potent and selective dual inhibitors of acetylcholinesterase and acetylcholinesterase-induced beta-amyloid aggregation” (Eur J Med Chem, 2011).
